Measurements taken from patent US11707636B2, “Methods and devices for modulating cellular activity using ultrasound” (priority 2008, dated 2023).
Entries after “also recorded” stand apart in the source; their conditions may differ.

Key:
[1] = system: motor cortex; design: species or system mice; conditions: mouse, in vivo
[2] = system: motor cortex; design: species or system mice; conditions: mouse, in vivo; remark: listed apart in the source
[3] = system: Ca^2+ transients (OGB-1 signals) in neurons; format: cell-based, mice
[4] = system: Na^+ transients in CA1 pyramidal neurons; format: cell-based, mice
[5] = system: synaptic vesicle exocytosis in hippocampal slice cultures; format: cell-based, mice

NC1=N[C@H](O)[C@H]2[C@H]3O[C@]4(O)O[C@@H]([C@@H](O)[C@@]2(N1)[C@@H]4O)[C@]3(O)CO [TTX, tetrodotoxin]
US-evoked cortical activity [1]: blocked | US-evoked EMG activity / descending corticospinal circuit activity [2]: blocks | average presynaptic temporal response of OGB-1 to USW-1 [3]: nearly abolishing | Na^+ transient response (ΔF/F0 CoroNa Green) to USW-1 [4]: blocked | exocytosis (spH response) in response to low intensity ultrasound waveforms [5]: nearly abolishes; also recorded: nearly abolishing
